Experiments:
Estrogen receptor = target: T1, Estrogen receptor (Homo sapiens, UniProt P03372)
T1 sequence (P03372 whole entry): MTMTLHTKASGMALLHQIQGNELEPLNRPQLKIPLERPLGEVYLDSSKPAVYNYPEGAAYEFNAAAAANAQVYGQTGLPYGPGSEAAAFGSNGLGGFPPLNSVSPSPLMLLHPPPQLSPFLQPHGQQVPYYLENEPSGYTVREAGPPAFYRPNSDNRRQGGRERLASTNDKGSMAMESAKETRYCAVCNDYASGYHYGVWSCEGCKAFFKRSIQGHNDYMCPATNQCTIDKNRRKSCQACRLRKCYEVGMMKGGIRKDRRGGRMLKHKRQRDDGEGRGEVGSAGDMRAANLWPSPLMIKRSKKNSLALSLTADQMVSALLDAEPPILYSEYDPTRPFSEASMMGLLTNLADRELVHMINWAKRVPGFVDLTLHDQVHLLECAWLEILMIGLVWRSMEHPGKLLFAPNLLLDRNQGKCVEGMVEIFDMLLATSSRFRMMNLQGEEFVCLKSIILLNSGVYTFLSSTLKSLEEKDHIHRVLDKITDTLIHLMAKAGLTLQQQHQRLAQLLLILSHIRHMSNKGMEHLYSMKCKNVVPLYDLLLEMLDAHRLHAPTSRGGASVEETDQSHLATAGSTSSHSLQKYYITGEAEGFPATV
Description: Binding affinity for human estrogen receptor alpha

Estrogen receptor beta = Estrogen receptor beta (Homo sapiens, UniProt Q92731)
Description: Binding affinity for human estrogen receptor beta

MCF7 = assay: Inhibition of MCF-7 cancer cell proliferation; format: functional, cell-based; conditions: Homo sapiens

Sequence of Estrogen receptor beta (Q92731 whole entry): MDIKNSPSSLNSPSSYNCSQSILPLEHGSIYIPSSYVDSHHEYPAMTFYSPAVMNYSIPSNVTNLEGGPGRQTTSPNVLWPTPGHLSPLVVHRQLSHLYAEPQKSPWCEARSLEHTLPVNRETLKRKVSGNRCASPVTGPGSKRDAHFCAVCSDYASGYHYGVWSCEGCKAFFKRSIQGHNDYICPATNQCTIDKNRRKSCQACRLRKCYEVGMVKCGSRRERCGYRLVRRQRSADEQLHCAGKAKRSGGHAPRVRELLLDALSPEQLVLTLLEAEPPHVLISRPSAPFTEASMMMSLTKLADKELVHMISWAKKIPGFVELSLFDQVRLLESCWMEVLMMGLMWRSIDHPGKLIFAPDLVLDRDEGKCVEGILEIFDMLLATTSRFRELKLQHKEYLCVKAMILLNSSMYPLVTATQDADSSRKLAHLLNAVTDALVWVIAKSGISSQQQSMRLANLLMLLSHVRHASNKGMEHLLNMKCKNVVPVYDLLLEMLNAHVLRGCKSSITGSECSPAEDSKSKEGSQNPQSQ

`Oc1ccc([C@H]2Sc3cc(O)ccc3O[C@H]2c2ccc(CCCN3CCCCC3)cc2)cc1` gave an IC50 (Estrogen receptor) of 1.4 nM, an IC50 (Estrogen receptor beta) of 186 nM and an IC50 (MCF7) of 6.7 nM.

`Oc1ccc([C@H]2Sc3cc(O)ccc3O[C@H]2c2ccc(COCCN3CCCCC3)cc2)cc1` gave an IC50 (Estrogen receptor) of 2.3 nM, an IC50 (Estrogen receptor beta) of 259 nM and an IC50 (MCF7) of 14.6 nM.

For `Oc1ccc([C@H]2Sc3cc(O)ccc3O[C@H]2c2ccc(N3CCCNCC3)cc2)cc1`, the IC50 (Estrogen receptor) was 3.6 nM, the IC50 (Estrogen receptor beta) was 161 nM and the IC50 (MCF7) was 28 nM.

In the case of `CCN1CCN(c2ccc([C@@H]3Oc4ccc(O)cc4S[C@@H]3c3ccc(O)cc3)cc2)CC1`, the IC50 (Estrogen receptor) is reported as 1 nM, the IC50 (Estrogen receptor beta) is reported as 27 nM and the IC50 (MCF7) is reported as 1.4 nM.

In the case of `CN1CCCN(c2ccc([C@@H]3Oc4ccc(O)cc4S[C@@H]3c3ccc(O)cc3)cc2)CC1`, the IC50 (Estrogen receptor) is reported as 3.6 nM, the IC50 (Estrogen receptor beta) is reported as 365 nM and the IC50 (MCF7) is reported as 29 nM.

Work on `Oc1ccc([C@H]2Sc3cc(O)ccc3O[C@H]2c2ccc(C3=CCNCC3)cc2)cc1` yielded an IC50 (Estrogen receptor) of 1.4 nM, an IC50 (Estrogen receptor beta) of 31 nM and an IC50 (MCF7) of 0.9 nM.

For `Oc1ccc([C@H]2Sc3cc(O)ccc3O[C@H]2CCCN2CCCCC2)cc1`, the IC50 (Estrogen receptor) was 0.7 nM, the IC50 (Estrogen receptor beta) was 27 nM and the IC50 (MCF7) was 1.2 nM.

Compound `Oc1ccc([C@H]2Sc3cc(O)ccc3O[C@H]2c2ccc(C3CCNCC3)cc2)cc1` has an IC50 (Estrogen receptor) of 1.7 nM, an IC50 (Estrogen receptor beta) of 115 nM and an IC50 (MCF7) of 1.9 nM.

In the case of `CN1CCN(c2ccc([C@@H]3Oc4ccc(O)cc4S[C@@H]3c3ccc(O)cc3)cc2)CC1`, the IC50 (Estrogen receptor) is reported as 1 nM, the IC50 (Estrogen receptor beta) is reported as 59 nM and the IC50 (MCF7) is reported as 3.4 nM.

In the case of `Oc1ccc([C@H]2Sc3cc(O)ccc3O[C@H]2c2ccc(N3CCNCC3)cc2)cc1`, the IC50 (Estrogen receptor) is reported as 4.4 nM, the IC50 (Estrogen receptor beta) is reported as 186 nM and the IC50 (MCF7) is reported as 2.8 nM.

`Oc1ccc([C@H]2Sc3cc(O)ccc3O[C@H]2c2ccc(CN3CCCCC3)cc2)cc1` was tested, and the IC50 (Estrogen receptor) was 155 nM and the IC50 (Estrogen receptor beta) was 4370 nM.

— ChEMBL document CHEMBL1148423, “Estrogen receptor ligands. Part 5: The SAR of dihydrobenzoxathiins containing modified basic side chains” (Bioorg Med Chem Lett, 2004)
